The supplement of paper PMC8149375

Columns and labels:
Conditions in all cases: treatment: drug + dasatinib (fixed dose, not stated); 5 days
769-P [1] = experiment: GI50 of drug in presence of dasatinib; higher = less potent
Method: (§1)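 Primary HTS combination arm: 8 RCC cell lines treated with 8 doses (up to 10 uM) of each library drug plus a fixed dose of dasatinib (dose not stated) for 5 days; viability read by CellTiter-Glo and normalised to DMSO. GI50 was fitted with XLfit, AUC is the area under the dose-response curve, and minimum viability is the lowest fraction of DMSO viability across doses.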

ACHN [2] = experiment: as above
Method: as §1

CAKI-1 [3] = experiment: as above
Method: as §1

786-O [4] = experiment: as above
Method: as §1

UO-31 [5] = experiment: as above
Method: as §1

SN12C [6] = experiment: as above
Method: as §1

TK-10 [7] = experiment: as above
Method: as §1

A498 [8] = experiment: as above
Method: as §1

769-P [9] = experiment: minimum viability across doses, drug + dasatinib, relative to DMSO (fraction); higher = less growth inhibition
Method: as §1

ACHN [10] = experiment: as above
Method: as §1

CAKI-1 [11] = experiment: as above
Method: as §1

786-O [12] = experiment: as above
Method: as §1

UO-31 [13] = experiment: as above
Method: as §1

SN12C [14] = experiment: as above
Method: as §1

TK-10 [15] = experiment: as above
Method: as §1

A498 [16] = experiment: as above
Method: as §1

769-P [17] = experiment: AUC of dose-response viability curve, drug + dasatinib, normalised to DMSO (arbitrary (AUC of normalised viability)); higher = less growth inhibition
Method: as §1

ACHN [18] = experiment: as above
Method: as §1

CAKI-1 [19] = experiment: as above
Method: as §1

786-O [20] = experiment: as above
Method: as §1

UO-31 [21] = experiment: as above
Method: as §1

SN12C [22] = experiment: as above
Method: as §1

TK-10 [23] = experiment: as above
Method: as §1

A498 [24] = experiment: as above
Method: as §1

SMILES | GI50 of drug (769-P [1]) [µM] | GI50 of drug (ACHN [2]) [µM] | GI50 of drug (CAKI-1 [3]) [µM] | GI50 of drug (786-O [4]) [µM] | GI50 of drug (UO-31 [5]) [µM] | GI50 of drug (SN12C [6]) [µM] | GI50 of drug (TK-10 [7]) [µM] | GI50 of drug (A498 [8]) [µM] | minimum viability across doses (769-P [9]) | minimum viability across doses (ACHN [10]) | minimum viability across doses (CAKI-1 [11]) | minimum viability across doses (786-O [12]) | minimum viability across doses (UO-31 [13]) | minimum viability across doses (SN12C [14]) | minimum viability across doses (TK-10 [15]) | minimum viability across doses (A498 [16]) | AUC of dose-response viability curve (769-P [17]) | AUC of dose-response viability curve (ACHN [18]) | AUC of dose-response viability curve (CAKI-1 [19]) | AUC of dose-response viability curve (786-O [20]) | AUC of dose-response viability curve (UO-31 [21]) | AUC of dose-response viability curve (SN12C [22]) | AUC of dose-response viability curve (TK-10 [23]) | AUC of dose-response viability curve (A498 [24])
O=C1NC(=O)C(=Cc2ccc(-c3ccc(F)cc3)o2)S1 (stereo in doubt) + Cc1nc(Nc2ncc(C(=O)Nc3c(C)cccc3Cl)s2)cc(N2CCN(CCO)CC2)n1 [dasatinib] | > 10 | > 10 | > 10 | > 10 | > 10 | > 10 | > 10 | > 10 | 0.594 | 0.607 | 0.638 | 0.519 | 0.657 | 0.655 | 0.633 | 0.903 | 2.42 | 2.28 | 2.46 | 2.24 | 3.43 | 2.4 | 2.37 | 3.83
CCCCOc1c(C(=O)c2c(F)cc(C)cc2F)cnc2[nH]ncc12 + Cc1nc(Nc2ncc(C(=O)Nc3c(C)cccc3Cl)s2)cc(N2CCN(CCO)CC2)n1 [dasatinib] | > 10 | 0.015 | 2.58 | 0.0252 | 2.65 | > 10 | 0.322 | > 10 | 0.52 | 0.135 | 0.378 | 0.0144 | 0.182 | 0.565 | 0.377 | 0.795 | 2.26 | 1.18 | 1.94 | 1.09 | 3.38 | 2.47 | 1.89 | 3.45
N#Cc1c(O)c2c(-c3ccc(-c4ccccc4O)cc3)csc2[nH]c1=O + Cc1nc(Nc2ncc(C(=O)Nc3c(C)cccc3Cl)s2)cc(N2CCN(CCO)CC2)n1 [dasatinib] | > 10 | > 10 | > 10 | > 10 | > 10 | > 10 | > 10 | > 10 | 0.683 | 0.595 | 0.655 | 0.6 | 1.02 | 0.634 | 0.705 | 0.86 | 2.56 | 2.25 | 2.38 | 2.63 | 4.43 | 2.35 | 2.78 | 3.43
CN1CCN(c2cccc(Nc3nc4c(-c5ccc(S(C)(=O)=O)cc5)cccn4n3)c2)CC1 + Cc1nc(Nc2ncc(C(=O)Nc3c(C)cccc3Cl)s2)cc(N2CCN(CCO)CC2)n1 [dasatinib] | 4.17 | 0.00378 | 0.704 | 5.28 | 3.16 | > 10 | 1.25 | > 10 | 0.293 | 0.0965 | 0.0803 | 0.443 | 0.0195 | 0.246 | 0.174 | 1.02 | 2.27 | 1.23 | 1.84 | 2.21 | 3.59 | 2.37 | 2.12 | 3.99
CN(C)c1ccc(-c2nc3c(N4CCN(CC(=O)Nc5nccs5)CC4)c(Cl)cnc3[nH]2)cc1 + Cc1nc(Nc2ncc(C(=O)Nc3c(C)cccc3Cl)s2)cc(N2CCN(CCO)CC2)n1 [dasatinib] | 1.95 | 0.162 | 0.334 | 0.953 | 2.84 | 0.976 | 4.03 | 3.35 | 0.307 | 0.145 | 0.0775 | 0.26 | 0.107 | 0.2 | 0.487 | 0.281 | 2.19 | 1.53 | 1.69 | 1.91 | 3.26 | 2.03 | 2.34 | 2.88
Cc1cc(CN2CCN(c3c(Br)cnc4[nH]c(-c5ccc(N6CCN(C)CC6)cc5)nc34)CC2)no1 + Cc1nc(Nc2ncc(C(=O)Nc3c(C)cccc3Cl)s2)cc(N2CCN(CCO)CC2)n1 [dasatinib] | 0.504 | 0.141 | 0.231 | 0.232 | 2.45 | 0.626 | 1.82 | 2.01 | 0.019 | 0.0106 | 0.00433 | 0.00361 | 0.0168 | 0.00484 | 0.198 | 0.0164 | 1.76 | 1.5 | 1.57 | 1.52 | 3.64 | 1.78 | 2.24 | 3.1
Cc1c(NC(=O)OC[C@@H]2COCCN2)cn2ncnc(Nc3ccc4c(cnn4Cc4cccc(F)c4)c3)c12.Cl + Cc1nc(Nc2ncc(C(=O)Nc3c(C)cccc3Cl)s2)cc(N2CCN(CCO)CC2)n1 [dasatinib] | 0.652 | 0.23 | 2.43 | 7.25 | 5.46 | > 10 | 1.14 | > 10 | 0.157 | 0.249 | 0.441 | 0.444 | 0.251 | 0.662 | 0.19 | 0.858 | 2.01 | 1.84 | 2.24 | 2.62 | 2.98 | 2.47 | 2.31 | 3.28
